The text below walks through data of patent publication US7173021B2, “Synthesis of temozolomide esters as potent anticancer pro-drugs for topical and transdermal applications in treatments of cancers” (Tianjin North Pharm Sci-Tech Co., Ltd., priority 2004, dated 2007).

In brackets after ≈: the same amount, converted by molar mass. A value given as a limit tells only on which side of the number the result lay.

One data set has as its system MCF-7 (human breast). Description: In vitro tumour cell growth inhibition (MTT), MCF-7. The class given is cell-based. The settings on record: MCF7, Table 1 experiment, 96 h. On the procedure:
(§1) Temozolomide (white powder), temozolomide acid (white powder) and temozolomide-8-carboxylate hexyl (white scale crystal) were made in house. For the estimation of in vitro tumour cell growth inhibition, MV3 (human melanoma), M14 (human melanoma), B16 and B16-BL6 (mouse melanoma), SHG-44, TJ899 and TJ905 (human glioma), MCF-7 (human breast), HCT-8 (human colon), A549 (human non small lung), Bel7402 (human hepatocellulor), and BGC-823 (human stomach) were used. All tumour cells were cultured in RPMI-1640 medium supplemented with 10% fetal bovine serum (FBS) at 37° C. in a humidified 5% CO2 incubator.
(§2) After being harvested from culture flasks, a cell suspension of 1×10^4/ml was made by using 1640 RPMI medium supplemented with 10% fetal bovine serum. 100 μl (contains 1000 tumour cells) of the cell suspension was seeded per well of 96-well flat-bottom Costar culture plates at 37° C. in a humidified 5% CO2 incubator for 24 hrs before introducing drugs. Each tested compounds was made for five different concentrations and 100 μl of the each concentration was introduced into parallel three wells; control wells were added with 100 μl of plain medium alone; fluorouracil (a chemotherapeutic antitumour drug) was used as the positive control. Cells were then incubated for 96 h. Proliferative response and cell death were determined using MTT (3-(4,5-dimethylthiazolyl)-2,5-diphenyl-tetrazolium bromide) assay.
(§3) MTT assay: Following incubation of cells with the tested compounds for 96 h, 100 μl of 0.4 mg/ml MTT in RPMI 1640 was added to each well and the plate was incubated at 37° C. for 4 h. The plate was then centrifuged and followed by removal of medium. 150 μl of DMSO was then added to dissolve formazan crystal. DMSO-added plates were placed on a plate shaker for 5 min and absorbance was measured spectrophotometrically at 540 nm (with reference wavelength at 450 nm) using a Benchmark microtiter plate reader (Bio-Rad 550, Bio-Rad Laboratories, CA, U.S.A.).
(§4) The IC50 was calculated from the curve of the tested compound concentrations against the inhibition rate of the tumour cells. […]

Data set [1] has as its system A549 (human non small lung). Description: In vitro tumour cell growth inhibition (MTT), A549. The note with it: Table 1 experiment, 96 h. It counts as cell-based. The method, then: as §1, §2, §3, §4
The test system of the next data set is HCT-8 (human colon). The data set can be described thus: In vitro tumour cell growth inhibition (MTT), HCT-8. It counts as cell-based. The settings on record: Table 1 experiment, 96 h. On the procedure: as §1, §2, §3, §4
Another data set concerns BGC-823 (human stomach). Description: In vitro tumour cell growth inhibition (MTT), BGC-823. The class given is cell-based. The settings on record: Table 1 experiment, 96 h. On the procedure:
as §1, §2, §3, §4

For the next data set, the system named is B16 (mouse melanoma). The data set can be described thus: In vitro tumour cell growth inhibition (MTT), B16. It counts as cell-based. The settings on record: Mus musculus, Table 2 experiment, 96 h. On the procedure: as §1, §2, §3
(§5) The IC50 was calculated from the curve of the tested compound concentrations against the inhibition rate of the tumour cells. Table 1 summarized the experiment results by using six human cancer cell lines, HCT-8 (colon carcinoma), A549 (non small lung carcinoma), MCF-7 (breast), Bel7402 (hepatocellulor carcinoma), BGC-823 (stomach adenocarcinoma), and MV3 (melanoma). Table 2 summarized the results from the experiment results by using two human melanoma cell lines, MV3 and M14, two mouse melanoma cell lines, B16 and B16-BL6, and three human glioma cell lines, TJ899, SHG-44 and TJ905.

The subject of another data set is TJ899 (human glioma). Description: In vitro tumour cell growth inhibition (MTT), TJ899. It counts as cell-based. The settings on record: Homo sapiens, Table 2 experiment, 96 h. On the procedure: as §1, §2, §3, §5
Data set [2] in a line: Measured log P, octanol/water. The class given is physicochemical. The settings on record: octanol/water system; read-out: measured Log P (mLog P). On the procedure: Log P values of temozolomide (1) and the temozolomide esters were calculated using TSAR (Oxford Molecular, Oxford, UK), Molecular Modeling Pro (ChemSW, Fairfield, Calif.) and Chem Office 7.0 (CambridgeSoft, Cambridge, UK) programmes. Calculated Log P values were verified for temozolomide and the temozolomide hexyl ester by measuring the octanol/water coefficient (Table 4).

The nature of data set [3]: In vitro permeation, Franz diffusion cell, silicone membrane. The note with it: 37° C., 8 h, FIGS. 3-5. The class given is in vitro ADME. An excerpt: Jacketed Franz-type diffusion cells were used throughout the study and the barrier (12) (skin or silicone membrane) was mounted between the two chambers (14, 16) (2.8–3.4 cm^2 available surface area) with the dermal side in contact with the receiver solution (FIG. 2). The diffusion chambers (10) comprised a barrier of skin or silicone membrane (12) mounted between two chambers (14, 16). A cap (18) formed the donor compartment (14). The second receptor compartment (16) contained a receptor cell (20) with a stirring bar (22), sampling port (24) and cover (26). The stirring bar (22) was stirred by means of a magnet plate (28) having a rotating magnet. The receptor compartment comprised a water jacket (30) having a water inlet (32) and a water outlet (34).
Three types of materials were used in permeation studies. • 1. Silicone membrane (Silastic Medical Grade, 500-5, Dow Corning 0.005 in thick) was cut into circular sections (2 cm diameter) and washed with double distilled water prior to use. • 2. Full-thickness rat skin was obtained from Male Wistar rats aged 10 to 12 weeks and weighing 250 to 300 g, which were sacrificed by cervical dislocation, the abdomen shaved and the intact skin removed by dissection. Following removal of fat tissue, the skin was cut into circular pieces and used immediately. • 3. Samples of adult human epidermis were purchased from the Stephen Kirby Skin Bank (UK). The samples were from the leg, were stored at −18° C. and used within one week. Experiments
The membrane (as detailed above) was mounted on the diffusion cell (10), on which the surface area available for diffusion of each cell was about 2.8–3.4 cm^2. The cell cap (18) was placed on the membrane (12), and it was sealed with Parafilm® connecting the cell cap, membrane, and receptor cell. The capacity of each receptor cell was around 25–26 ml, which was filled with receptor solution and was completely in contact with the membrane sheet. During the course of experiment, the solution was continuously stirred by teflon-coated magnetic bar (22) placed in the cell (20). The temperature was maintained at 37° C. by a thermostatic water pump that circulated the water through the jacket (30) surrounding the cell body. The system was allowed to equilibrate under these conditions for half an hour. Finally, the prepared sample solution (2 ml) was added into the donor cap cell, and it was sealed with Parafilm® to minimize the evaporation of donor solution. 1 ml of receptor solution was removed every 30 minutes for 5 hours and then every 60 minutes for a further 3 hours. The volumes withdrawn were always replaced with equal volumes of fresh receptor solution to maintain constant volume. The concentration of each sample solution was determined by using HPLC.
For every sample, six determinations were performed on human and rat skin, and three determinations were carried out through artificial silicone membrane.
As stated above, after the removal of receptor solution, the receiver compartment was refilled with an identical volume of receptor fluid. This causes of the dilution of receptor solution leading to an under determination of the sample concentration. As a consequence, it was necessary to mathematically correct each successive sample concentrations, in the present invention, which was determined by applying the following equation:
[formula] where Ct is the actual current concentration of drug in the receptor phase at time t, Cmt is the apparent (i.e. measured) current concentration of drug in the receptor phase, Vs is the sample volume withdrawn for analysis, Vr is the volume of receptor solution, and ΣCm is the summed total of the previous measured concentrations.
Finally, the amount of drug penetrating the skin per unit area was calculated by dividing the obtained concentrations by the surface area available for diffusion cell and this value was different for each individual cell. […]

For `CCCCCCOC(=O)c1ncn2c(=O)n(C)nnc12` [temozolomide hexyl ester, Hexyl 3,4-dihydro-3-methyl-4-oxoimidazo[5,1-d]-1,2,3,5-tetrazine-8-carboxylate], the IC50 is 20 µg/mL (≈ 71.6 µM) with MCF-7 (human breast); 26.6 µg/mL (≈ 95.4 µM) in data set [1]; 28.6 µg/mL (≈ 103 µM) with HCT-8 (human colon); greater than 19.5 µg/mL in the data set on BGC-823 (human stomach); 28.3 µg/mL (≈ 101 µM) in the data set on B16 (mouse melanoma); greater than 100 µg/mL with TJ899 (human glioma). Moreover, the logP in data set [2] was 2.56. The “Permeation through synthetic silicone membrane” value in data set [3] was “passed through the membrane far more efficiently”.
